Source: patent publication US7491794B2, “Macrocyclic compounds as inhibitors of viral replication” (Intermune, Inc., priority 2003, dated 2009)

Experiments:
[1] = test system: HCV sub-genomic replicon, GS4.3; assay: Quantitation by ELISA of NPTII in the HCV sub-genomic replicon, GS4.3, Section B; format: cell-based; conditions: Hepatitis C virus; GS4.3 cells, 72 h incubation; read-out: Replicon EC50
In short: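 NPTII marker protein in lysates was quantified by ELISA read at 450 nm after 72 h inhibitor exposure (3-fold series, final DMSO 1%, G418-free medium) of HuH-7 cells stably harbouring the subgenomic HCV replicon. Values relative to DMSO-treated controls; 4-parameter curves gave EC50.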

[2] = molecular target: T1, NS3-NS4A protease (Hepatitis C virus genotype 1a, UniProt P27958); assay: NS3-NS4A protease assay (NS3 inhibition assay, RETS1 substrate), Section B; format: biochemical; conditions: read-out: NS3-NS4A IC50
T1 construct: Recombinant E. coli or Baculovirus full-length NS3 was diluted to 3.33 μM with assay buffer; made in house; host or cells: E. coli or baculovirus (BV) system
In short: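 Kinetic fluorescence read (335 nm excitation, 495 nm emission, 30 min) of RETS1 cleavage by NS3/NS4A-2 complex, 2 nM E. coli or 3 nM baculovirus NS3, after 10 min room-temperature compound pre-incubation. Four-parameter-fit IC50s converted to Ki by Cheng–Prusoff, Ki=IC50/(1+[S]/Km).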

T1 sequence (P27958 1027-1657): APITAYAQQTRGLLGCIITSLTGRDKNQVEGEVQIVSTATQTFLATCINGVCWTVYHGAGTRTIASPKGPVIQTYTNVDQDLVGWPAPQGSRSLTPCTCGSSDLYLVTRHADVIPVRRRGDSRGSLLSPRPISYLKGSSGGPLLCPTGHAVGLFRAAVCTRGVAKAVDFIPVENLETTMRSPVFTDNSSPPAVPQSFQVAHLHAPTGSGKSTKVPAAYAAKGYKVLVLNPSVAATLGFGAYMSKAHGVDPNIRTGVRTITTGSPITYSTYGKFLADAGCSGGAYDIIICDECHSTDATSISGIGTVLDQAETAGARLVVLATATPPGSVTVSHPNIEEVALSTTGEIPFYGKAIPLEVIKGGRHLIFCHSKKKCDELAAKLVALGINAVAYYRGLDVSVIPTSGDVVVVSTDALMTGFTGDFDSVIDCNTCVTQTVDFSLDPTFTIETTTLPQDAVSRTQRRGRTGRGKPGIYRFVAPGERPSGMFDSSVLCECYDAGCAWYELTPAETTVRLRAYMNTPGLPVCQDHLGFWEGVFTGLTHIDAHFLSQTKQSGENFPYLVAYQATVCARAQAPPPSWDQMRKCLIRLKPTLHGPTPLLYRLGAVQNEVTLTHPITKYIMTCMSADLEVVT

O=C(NC1CCCC1)N[C@H]1CCCCC/C=C\[C@@H]2C[C@@]2(C(=O)NS(=O)(=O)C2CC2)NC(=O)[C@@H]2C[C@@H](OC(=O)N3CCc4cccc(C(F)(F)F)c4C3)CN2C1=O [AR00304081, (1S,4R,6S,14S,18R)-8-Trifluoromethyl-3,4-dihydro-1H-isoquinoline-2-carboxylic acid 14-(3-cyclopentyl-ureido)-4-cyclopropanesulfonylaminocarbonyl-2,15-dioxo-3,16-diaza-tricyclo[14.3.0.0^4,6]nonadec-7-en-18-yl ester] gave an EC50 [1] of less than 1000 nM and an IC50 [2] of less than 100 nM.
In the case of O=C(NC1CCCC1)N[C@H]1CCCCC/C=C\[C@@H]2C[C@@]2(C(=O)NS(=O)(=O)C2CC2)NC(=O)[C@@H]2C[C@@H](OC(=O)N3Cc4ccccc4C3)CN2C1=O [AR00304082, (1S,4R,6S,14S,18R)-1,3-Dihydro-isoindole-2-carboxylic acid 14-(3-cyclopentyl-ureido)-4-cyclopropanesulfonylaminocarbonyl-2,15-dioxo-3,16-diaza-tricyclo[14.3.0.0^4,6]nonadec-7-en-18-yl ester], the EC50 [1] is reported as less than 100 nM and the IC50 [2] is reported as less than 100 nM.
Compound CC(C)(C)Nc1nc2c(s1)CN(C(=O)O[C@@H]1C[C@H]3C(=O)N[C@]4(C(=O)O)C[C@H]4/C=C\CCCCC[C@H](NC(=O)OC(C)(C)C)C(=O)N3C1)CC2 [AR00304103, (1S,4R,6S,14S,18R)-14-tert-Butoxycarbonylamino-18-(2-tert-butylamino-6,7-dihydro-4H-thiazolo[5,4-c]pyridine-5-carbonyloxy)-2,15-dioxo-3,16-diaza-tricyclo[14.3.0.0^4,6]nonadec-7-ene-4-carboxylic acid] has an EC50 [1] of less than 10000 nM and an IC50 [2] of less than 10000 nM.
O=C(N[C@H]1CCCCC/C=C\[C@@H]2C[C@@]2(C(=O)O)NC(=O)[C@@H]2C[C@@H](OC(=O)N3CCc4ccccc4C3)CN2C1=O)OCCF [AR00304125, (1S,4R,6S,14S,18R)-18-(3,4-Dihydro-1H-isoquinoline-2-carbonyloxy)-14-(2-fluoro-ethoxycarbonylamino)-2,15-dioxo-3,16-diaza-tricyclo[14.3.0.0^4,6]nonadec-7-ene-4-carboxylic acid] gave an EC50 [1] of less than 10000 nM and an IC50 [2] of less than 1000 nM.
With O=C(N[C@H]1CCCCC/C=C\[C@@H]2C[C@@]2(C(=O)O)NC(=O)[C@@H]2C[C@@H](OC(=O)N3CCc4ccccc4C3)CN2C1=O)O[C@H]1CCOC1 [AR00304126, (1S,4R,6S,14S,18R)-18-(3,4-Dihydro-1H-isoquinoline-2-carbonyloxy)-2,15-dioxo-14-(tetrahydro-furan-3S-yloxycarbonylamino)-3,16-diaza-tricyclo[14.3.0.0^4,6]nonadec-7-ene-4-carboxylic acid] the EC50 [1] was less than 10000 nM and the IC50 [2] was less than 1000 nM.
For O=C(N[C@H]1CCCCC/C=C\[C@@H]2C[C@@]2(C(=O)O)NC(=O)[C@@H]2C[C@@H](OC(=O)N3CCc4ccccc4C3)CN2C1=O)O[C@@H]1CCOC1 [AR00304127, (1S,4R,6S,14S,18R)-18-(3,4-Dihydro-1H-isoquinoline-2-carbonyloxy)-2,15-dioxo-14-(tetrahydro-furan-3R-yloxycarbonylamino)-3,16-diaza-tricyclo[14.3.0.0^4,6]nonadec-7-ene-4-carboxylic acid], the EC50 [1] was less than 10000 nM and the IC50 [2] was less than 1000 nM.
O=C(N[C@H]1CCCCC/C=C\[C@@H]2C[C@@]2(C(=O)NS(=O)(=O)C2CC2)NC(=O)[C@@H]2C[C@@H](OC(=O)N3CCc4ccccc4C3)CN2C1=O)OCCF [AR00304161, (1S,4R,6S,14S,18R)-3,4-Dihydro-1H-isoquinoline-2-carboxylic acid 4-cyclopropanesulfonylaminocarbonyl-14-(2-fluoro-ethoxycarbonylamino)-2,15-dioxo-3,16-diaza-tricyclo[14.3.0.0^4,6]nonadec-7-en-18-yl ester] was tested, and the EC50 [1] was less than 100 nM and the IC50 [2] was less than 100 nM.
